The target in data set [1] is T1, 5-HT7 receptor (Homo sapiens, UniProt P34969).
T1 construct: expressed in transfected cells
Description: 5-HT7 receptor binding. Particulars: human cloned receptors; ligand 3H-lizergic acid diethylamide (LSD) 1.0 nM; non-specific binding clozapine 25 μM. The procedure:
(§1) For the determination of 5-HT7 receptor affinity human cloned receptors were used. The α1 receptor affinities were determined from isolated frontal cortex preparation of male Wistar rats weighing 120-200 g. The protein contents of membrane preparations were determined by the method of Lowry (1951).
(§2) In the course of 5-HT7 and α1 receptor binding studies the ligands were ^3H-lizergic acid diethylamide (LSD) (1.0 nM) and ^3H-prazosine (0.3 nM). Clozapine (25 μM) and prazosine (1 μM) were used for the measurement of non-specific bindings. The α1 receptor binding studies were carried out according to the methods of Reader, and Greengrass (Reader, T. A., Briere, R., Grondin, L.: J. Neural Transm. 68, p. 79 (1987); Greengrass, P., Brenner, R.: Eur. J. Pharmacol. 55, p. 323 (1979)).
(§3) IC50 is the concentration where the difference between the whole binding and non-specific binding is 50%. The compounds with an IC50 value smaller than […] were considered effective in this test.

Data set [2] addresses α1 receptor. Description: α1 receptor binding. Details: species or system rat. The conditions noted are these: isolated frontal cortex preparation of male Wistar rats; ligand 3H-prazosine 0.3 nM; non-specific binding prazosine 1 μM. As for the experimental part: as §1, §2, §3

One may read the melting point as the temperature, or range, at which the solid turns liquid. By IC50 is commonly meant the concentration that inhibits the measured activity by half. Read a low IC50 as inhibition by little substance.

Molecules are shown by their SMILES. Counter-ions that a name gives are not always drawn.

T1 sequence (P34969 whole entry): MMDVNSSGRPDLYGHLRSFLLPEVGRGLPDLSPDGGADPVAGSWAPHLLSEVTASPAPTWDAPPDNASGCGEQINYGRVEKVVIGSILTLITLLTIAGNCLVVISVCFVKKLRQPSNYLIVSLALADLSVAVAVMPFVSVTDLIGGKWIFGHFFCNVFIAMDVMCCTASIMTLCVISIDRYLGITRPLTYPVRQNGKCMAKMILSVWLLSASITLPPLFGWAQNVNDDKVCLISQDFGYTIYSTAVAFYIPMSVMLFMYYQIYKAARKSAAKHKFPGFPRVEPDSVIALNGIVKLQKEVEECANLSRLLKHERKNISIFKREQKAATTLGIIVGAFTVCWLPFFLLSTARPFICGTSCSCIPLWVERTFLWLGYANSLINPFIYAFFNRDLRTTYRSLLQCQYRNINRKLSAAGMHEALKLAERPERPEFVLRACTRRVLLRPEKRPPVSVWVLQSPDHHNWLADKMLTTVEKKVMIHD

Regarding `COc1ccc(Cl)cc1N1CCN(CCCCC2C(=O)Nc3ccccc32)CC1` (stereo not shown) (as salt: hydrochloride) [Example 11, 3-{4-[4-(5-Chloro-2-methoxyphenyl)-piperazine-1-yl]-butyl}-1,3-dihydro-2H-indol-2-one Monohydrochloride], the melting point lay within 91 to 94 °C.
Same read-out and setting: in the case of `O=C1Nc2ccccc2C1CCCCN1CCN(c2cc(Cl)cc3c2OCCO3)CC1` (stereo not shown) (as salt: oxalate) [Example 6, 3-{4-[4-(7-Chloro-2,3-dihydrobenzo[1,4]dioxin-5-yl)-piperazine-1-yl]-butyl}-1,3-dihydro-2H-indol-2-one Monooxalate] it was 236 to 238 °C.
As to `O=C1Nc2cc(F)ccc2C1CCCCN1CCN(c2ccccn2)CC1` (stereo not shown) [Example 8, 6-Fluoro-3-[4-(4-pyridin-2-yl-piperazine-1-yl)-butyl]-1,3-dihydro-2H-indol-2-one], the melting point lay in the range of 136 to 137 °C. In data set [1], the IC50 is < 100 nM. Also, the IC50 in data set [2] is < 100 nM.
In the case of `COc1cccc(N2CCN(CCCCC3C(=O)Nc4ccccc43)CC2)c1` (stereo not shown) [Example 9, 3-{4-[4-(3-Methoxyphenyl)-piperazine-1-yl]-butyl}-1,3-dihydro-2H-indol-2-one Monooxalate], the 50% inhibitory concentration (IC50) in data set [1] is < 100 nM.
`COc1cccc(N2CCN(CCCCC3C(=O)Nc4ccc(F)cc43)CC2)c1` (stereo not shown) (as salt: oxalate) [Example 12, 5-Fluoro-3-{4-[4-3-methoxyphenyl)-piperazine-1-yl]-butyl}-1,3-dihydro-2H-indol-2-one Monooxalate] came in with a melting point of 211 to 214 °C.
The same measure, in the same setting: next, `COc1cccc(N2CCN(CCCCC3C(=O)Nc4ccccc43)CC2)c1` (stereo not shown) (as salt: oxalate) [Example 9, 3-{4-[4-(3-Methoxyphenyl)-piperazine-1-yl]-butyl}-1,3-dihydro-2H-indol-2-one Monooxalate]: 208 to 211 °C.
For the compound `O=C1Nc2ccccc2C1CCCCN1CCN(c2ccccn2)CC1` (stereo not shown) [Example 5, 3-[4-(4-Pyridin-2-yl-piperazine-1-yl)-butyl]-1,3-dihydro-2H-indol-2-one], the melting point lay within 131 to 132 °C. For the same compound, the half-maximal inhibitory concentration (IC50) in data set [1] is < 100 nM. Also, the 50% inhibitory concentration (IC50) in data set [2] is < 100 nM.
With `O=C1Nc2ccccc2C1CCCCN1CCN(c2cc(Cl)cc3c2OCCO3)CC1` (stereo not shown) [Example 6, 3-{4-[4-(7-Chloro-2,3-dihydrobenzo[1,4]dioxin-5-yl)-piperazine-1-yl]-butyl}-1,3-dihydro-2H-indol-2-one Monooxalate], the IC50 in data set [1] was < 100 nM.
For `O=C1Nc2ccc(F)cc2C1CCCCN1CCN(c2cc(Cl)cc3c2OCCO3)CC1` (stereo not shown) [Example 10, 3-{4-[4(7-Chloro-2,3-dihydrobenzo[1,4]dioxin-5-yl)piperazine-1-yl]-butyl}-5-fluoro-1,3-dihydro-2H-indol-2-one], the melting point lay in the range of 146 to 148 °C. Also, the IC50 in data set [1] is < 100 nM. The half-inhibitory concentration (IC50) in data set [2] is < 50 nM.
In the case of `COc1ccc(Cl)cc1N1CCN(CCCCC2C(=O)Nc3ccccc32)CC1` (stereo not shown) [Example 11, 3-{4-[4-(5-Chloro-2-methoxyphenyl)-piperazine-1-yl]-butyl}-1,3-dihydro-2H-indol-2-one Monohydrochloride], the IC50 in data set [1] was < 100 nM.
For `COc1cccc(N2CCN(CCCCC3C(=O)Nc4ccc(F)cc43)CC2)c1` (stereo not shown) [Example 12, 5-Fluoro-3-{4-[4-3-methoxyphenyl)-piperazine-1-yl]-butyl}-1,3-dihydro-2H-indol-2-one Monooxalate], the concentration for half-maximal inhibition (IC50) in data set [1] and in data set [2] was < 100 nM each time.
Turning to `O=C1Nc2ccc(F)cc2C1CCCCN1CCN(c2ccccn2)CC1` (stereo not shown) [Example 7, 5-Fluoro-3-[4-(4-pyridin-2-yl-piperazine-1-yl)-butyl]-1,3-dihydro-2H-indol-2-one], the melting point was in the range of 132 to 134 °C.

Values taken from patent publication US7910591B2, “Piperazine derivatives of alkyl oxindoles” (EGIS Gyogyszergyar NYRT., priority 2004, dated 2011).
